Source: publication PMC3348654 (The Journal of Neuroscience, 2012)

Experiments:
[1] = tested on: hippocampal slices from Tg2576 mice; assay: Electrophysiological recordings; type: cell-based; details: 300 nM, 4–5 h, hippocampal slices from old Tg2576 mice, versus vehicle
[2] = tested on: brain slices from wild type mice; assay: Electrophysiological recordings in brain slices from age-matched wild type mice; type: cell-based; details: 300 nM
[3] = tested on: CREB (Ser133); assay: Phospho-CREB immunoassay in hippocampal slices; type: cell-based; details: 300 nM, 5 hours, hippocampal slices from old Tg2576 mice, versus vehicle
[4] = tested on: Erk/MAP kinase 1/2 (Thr185/Tyr187); assay: Multiplex phospho-Erk1/2 immunoassay in hippocampal slices; type: cell-based; details: 300 nM, 5 hours, hippocampal slices from old Tg2576 mice
[5] = tested on: MEK1 (Ser222); assay: Multiplex phospho-MEK immunoassay in hippocampal slices; type: cell-based; details: 300 nM, 5 hours, hippocampal slices from old Tg2576 mice
[6] = tested on: PKA; assay: PKA activity assay and PKA IIa protein content in hippocampal slices; type: cell-based; details: 300 nM, 5 hours, hippocampal slices from old Tg2576 mice
[7] = tested on: CaMKII; assay: Western blot of phospho- and total CaMKII in hippocampal slices; type: cell-based; details: 300 nM, 5 hours, hippocampal slices from old Tg2576 mice
[8] = C and EC metabolite levels in rat brain tissue after 10 days repeated dosing; type: in vivo; details: rats, following repeated dosing with GP or with Mo

Structure (SMILES)	basal synaptic transmission in the CA1 region [1]	LTP [2]	basal synaptic transmission [2]	levels of [Ser133]-phosphorylated, active CREB [3]	phosphorylation status of Erk1/2 (Thr185/Tyr187) [4]	phosphorylation status of MEK [5]	PKA (PKA activity assay and PKA IIa protein content) [6]	level of [Thr286]-phosphorylated, active CaMKII [7]	level of total CaMKII [7]	free C and EC contents in the brain [8]
COc1cc([C@H]2Oc3cc(O)cc(O[C@@H]4O[C@H](C(=O)O)[C@@H](O)[C@H](O)[C@H]4O)c3C[C@H]2O)ccc1O [3’-O-Me-EC-Gluc, 3’-O-methyl-epicatechin-5-O-β-glucuronide]	significantly increased	did not have any effect	did not have any effect	significantly increased	did not modulate	did not modulate	nor did it affect	significantly increased	without influencing	–
Oc1cc(O)c2c(c1)O[C@H](c1ccc(O)c(O)c1)[C@H](O)C2 [EC, (−)-epicatechin]	–	–	–	–	–	–	–	–	–	trace contents (below levels for quantification)
Oc1cc(O)c2c(c1)OC(c1ccc(O)c(O)c1)C(O)C2 (single isomer, unassigned; (+)) [C, (+)-catechin]	–	–	–	–	–	–	–	–	–	trace contents (below levels for quantification)
